Laboratory results taken from patent US9896421B2, “Compound having skin-whitening, anti-oxidizing and PPAR activities and medical use thereof” (Pusan National University Industry-University Cooperation …, priority 2011, dated 2018).
“Also recorded” adds a separate entry of the source.

What was measured:
PPAR alpha-LBD = biological target: T1, PPAR alpha-LBD (Homo sapiens, UniProt Q07869); assay type: binding; settings: sample final concentration 100 M (so in the source); compared with fenofibrate (positive control); FIG. 7
T1 construct: 10 μl of 4×PPAR alpha-LBD/Tb-anti-GST antibody
T1 sequence (Q07869 239-466 limits assumed): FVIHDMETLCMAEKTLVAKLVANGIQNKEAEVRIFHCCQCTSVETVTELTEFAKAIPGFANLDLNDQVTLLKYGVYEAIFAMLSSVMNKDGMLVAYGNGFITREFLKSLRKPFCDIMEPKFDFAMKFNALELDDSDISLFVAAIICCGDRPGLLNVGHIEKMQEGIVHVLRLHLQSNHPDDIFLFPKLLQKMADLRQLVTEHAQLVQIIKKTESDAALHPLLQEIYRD

PPAR gamma-LBD = biological target: T2, PPAR gamma-LBD (Homo sapiens, UniProt P37231); assay: PPAR gamma assay (fluormone Pan-PPAR green competition, Tb-anti-GST antibody); assay type: binding; settings: sample final concentration 100 M (so in the source); compared with rosiglitazone (positive control); FIG. 8
T2 construct: 10 μl of 4×PPAR gamma-LBD/Tb-anti-GST antibody
T2 sequence (P37231 238-503 limits assumed): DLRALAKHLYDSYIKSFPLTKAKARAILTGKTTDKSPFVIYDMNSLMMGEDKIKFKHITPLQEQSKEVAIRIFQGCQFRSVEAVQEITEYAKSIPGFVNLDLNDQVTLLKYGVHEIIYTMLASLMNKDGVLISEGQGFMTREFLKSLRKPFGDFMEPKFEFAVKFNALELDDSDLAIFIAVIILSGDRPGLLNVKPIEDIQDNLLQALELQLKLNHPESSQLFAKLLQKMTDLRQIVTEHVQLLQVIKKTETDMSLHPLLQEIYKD
Description: 20 μl of a sample and 10 μl of 4× fluormone Pan-PPAR green were spread onto 384 well plates, and 10 μl of 4×PPAR alpha-LBD/Tb-anti-GST antibody or 10 μl of 4×PPAR gamma-LBD/Tb-anti-GST antibody were respectively used in PPAR alpha assay and PPAR gamma assay. In this regard, a sample compound was dissolved in such an amount of DMSO that made a final concentration of the sample to be 100 µM, and the DMSO final concentration was maintained within 1%. The reaction mixture was left at room temperature for 2 to 6 hours, and then, the absorption thereof was measured by using a microplate reader (Hewlett Packard) at an excitation wavelength of 340 nm and at an emission wavelength of 485 nm, and at an exitation wavelength of 340 nm and an emission wavelength of 520 nm to calculate a value of 520 nm/485 nm. In this regard, if a negative control was assumed to have an absorption value of 100, a competitive activation rate was defined as follows: 100 minus an absorption value of each sample. That is, the competitive activation rate indicates a binding ratio of the respective samples with respect to the negative control. […]

[1] = tested on: ROS generated by vascular endothelial cells (YPEN-1); assay: In vitro ROS scavenging activity assay (DCFDA) in YPEN-1 vascular endothelial cells; assay type: cell-based, rat; settings: YPEN-1 cells pre-treated with 50 μM SIN-1 for 1 hour; DCFDA fluorescence; compared with trolox (positive control); FIGS. 1 to 3
Description: YPEN-1 cells (rat prostatic endothelial cell line) was obtained from American type culture collection (ATCC, Manassas, Va., USA), and the cells were cultured by using a dulbecco's modified eagle medium (DMEM, Nissui, Tokyo, Japan) containing 2 mM L-glutamine, […], 2.5 mg/L amphotericin B, and 5% inactivated fetal bovine serum (FBS). Also, the cells were maintained at a temperature of 37° C. in a humid atmosphere-like condition containing 5% CO2 and 95% air. […] The cells were sub-cultured in 100 mm plastic flask (Corning Co., New York, USA) every two days to maintain the cell line.
Since the oil-soluble DCFDA was deacetylated into non-fluorescent DCFH due to esterase or oxidative hydrolysis and the DCFH was oxidized due to activity oxgyen to produce highly-fluorescent 2′,7′-dichlorofluorescein (DCF), the present measurement was performed at an excitation wavelength of 485 nm and an emission wavelength of 530 nm by using a fluorophotometer (GENios, TECAN). Vascular endothelial cells that were pre-treated with 50 μM 3-morpholinosydnonimine hydrochloride (SIN-1) for 1 hour were used as a reactive oxygen generation source.

male Balb/c mouse = assay: Toxicity test, single oral administration; assay type: in vivo; settings: single oral dose 0.5, 1 and 2 g/kg in 0.5% methylcellulose, observed 7 days
Description: A suspension of each of Compound 3, Compound 15, Compound 50, Compound 85, Compound 93, and Compound 115 in a 0.5% methylcellulose solution was orally administered once to a male Balb/c mouse in dosages of 0.5 g/kg, 1 g/kg, and 2 g/kg, and then the survival rate and body weight of the mouse was recorded for 7 days.
After the administration, whether the mouse died, clinical symptoms occurred, and body weight changed were identified and hematologic examination and blood biochemical examination were performed, and autopsy was performed to identify with naked eyes states of abdominal cavity organs and thoracic cavity organs.

[2] = tested on: Mushroom-derived tyrosinase; assay: Tyrosinase inhibitory effect; assay type: biochemical; settings: 1 mM L-tyrosin, pH 6.5, 25° C., 30 minutes, OD492; compared with kojic acid (positive control); FIGS. 4 to 6
Description: Mushroom-derived tyrosinase was sued as an enzyme source in the present experiment. Tyrosinase activities were assayed according to a slightly-modified conventionally known method (Life Sci., 1999, 65, 241-246). In detail, 20 μl of a mushroom-derived tyrosinase (1000 units) aqueous solution was added to 96-well microplate (Nunc, Denmark) to prepare 200 μl of the total volume of assay mixture containing 1 mM L-tyrosin solution and 50 mM phosphate buffer solution (pH 6.5). The assay mixture was cultured at a temperature of 25° C. for 30 minutes. After the culturing, an amount of the produced DOPA chrome in the reaction mixture was measured by using a microplate reader (Hewlett Packard) at 492 nm (OD492).

Compound	PPARα activities (competitive activation rate) (PPAR alpha-LBD)	PPARγ activities (competitive activation rate) (PPAR gamma-LBD)	scavenging effects on ROS generated by vascular endothelial cells [1]	melting point	death and clinical symptoms (male Balb/c mouse)	toxicity change (body weight change, hematologic examination, blood biochemical examination, autopsy) (male Balb/c mouse)	tyrosinase inhibitory activities [2]
CC(=O)Oc1ccc(/C=C2\N=C(C)OC2=O)c(O)c1 [Compound 85, (Z)-3-hydroxy-4-((2-methyl-5-oxooxazol-4(5H)-ylidene)methyl)phenyl acetate]	very excellent PPARα activation agent compared to fenofibrate; also recorded: simultaneously activates PPARα and PPARγ	simultaneously activates PPARα and PPARγ					
O=C1NC(=O)/C(=C/c2ccc(O)c(O)c2)N1 [Compound 26, (Z)-5-(3,4-dihydroxybenzylidene)imidazolidine-2,4-dione]			as high scavenging effects on ROS generated by vascular endothelial cells as trolox	> 300 °C			
O=C1NC(=O)/C(=C/c2ccc(O)c(O)c2)S1 [Compound 2, (Z)-5-(3,4-dihydroxybenzylidene)thiazolidine-2,4-dione]			as high scavenging effects on ROS generated by vascular endothelial cells as trolox	> 300 °C			
O=C1NC(=O)/C(=C/c2ccc(O)cc2O)S1 [Compound 3, (Z)-5-(2,4-dihydroxybenzylidene)thiazolidine-2,4-dione]					neither had distinctive clinical symptoms nor died	toxicity change was not identified	better tyrosinase inhibitory activities than a kojic acid
CC1=N/C(=C\c2ccccc2O)C(=O)O1 [Compound 93, (Z)-4-(2-hydroxybenzylidene)-2-methyloxazol-5(4H)-one]	very excellent PPARα activation agent compared to fenofibrate; also recorded: simultaneously activates PPARα and PPARγ	simultaneously activates PPARα and PPARγ					
O=C1NC(=S)N/C1=C\c1ccc(O)c(O)c1 [Compound 99, (Z)-5-(3,4-dihydroxybenzylidene)-2-thioxoimidazolidin-4-one]			as high scavenging effects on ROS generated by vascular endothelial cells as trolox	> 300 °C			
O=C1C/C(=C\c2ccc(O)c(O)c2)C(=O)N1 [Compound 37, (E)-3-(3,4-dihydroxybenzylidene)pyrrolidine-2,5-dione]			as high scavenging effects on ROS generated by vascular endothelial cells as trolox	290.8 to 291.9 °C			
O=C1NC(=O)C(=Cc2ccc(O)c(O)c2)C(=O)N1 [Compound 15, 5-(3,4-dihydroxybenzylidene)pyrimidine-2,4,6(1H,3H,5H)-trione]			as high scavenging effects on ROS generated by vascular endothelial cells as trolox		neither had distinctive clinical symptoms nor died	toxicity change was not identified	better tyrosinase inhibitory activities than a kojic acid
[H]/N=C1/NC(=O)C(=Cc2ccc(O)c(O)c2)N1C [Compound 75, (Z)-5-(3,4-dihydroxybenzylidene)-2-imino-1-methylimidazolidin-4-one]			as high scavenging effects on ROS generated by vascular endothelial cells as trolox	293 to 295.3 °C			
O=C1NC(=S)NC(=O)C1=Cc1ccc(O)c(O)c1 [Compound 50, 5-(3,4-dihydroxybenzylidene)-2-thioxodihydropyrimidine-4,6(1H,5H)-dione]			as high scavenging effects on ROS generated by vascular endothelial cells as trolox		neither had distinctive clinical symptoms nor died	toxicity change was not identified	better tyrosinase inhibitory activities than a kojic acid
